Some test systems named below: RXF 393 renal; HOP-62 NSCLC; OVCAR-5 ovarian; CCRF-CEM leukemia; BT-549 breast; HL-60(TB) leukemia; TK-10 renal; EKVX NSCLC; HCC-2998 colon; HCT-116 colon.
Common to all, as to experiment: DTP human tumour cell line panel, 48 h

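Protocol summary: plate cells (96-well), add compound at 5 concentrations, incubate 48 h, interpolate endpoints linearly. GI50 = concentration required for 50% inhibition of growth. TGI marks complete inhibition of growth.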

With `COc1ccc2c(c1)C(=O)c1c-2c(OCCN2CCCCC2)nc2ccc(OC)cc12`, the GI50 with RXF 393 renal is 1.9 µM; in the assay with HOP-62 NSCLC, 0.595 µM; in the assay with OVCAR-5 ovarian, 3.74 µM; in the assay on CCRF-CEM leukemia, 0.197 µM; with BT-549 breast, 8.26 µM; with HL-60(TB) leukemia it was 1.08 µM. Further, the GI50 was 4.51 µM in the assay on TK-10 renal, 1 µM in the assay on EKVX NSCLC, 1.23 µM in the assay on HCC-2998 colon and 0.393 µM in the assay with HCT-116 colon. Moreover, the TGI in the assay with RXF 393 renal worked out at 11 µM; with HOP-62 NSCLC, 11.2 µM; in the assay on OVCAR-5 ovarian it was 19.7 µM; in the assay on CCRF-CEM leukemia, 2.66 µM; in the assay with BT-549 breast, 23.3 µM; in the assay on HL-60(TB) leukemia it was 6.64 µM. Also, the TGI in the assay on TK-10 renal is 16.7 µM; in the assay on EKVX NSCLC, 4.12 µM; with HCC-2998 colon, 9.24 µM; in the assay with HCT-116 colon it was 1.64 µM.
With `C=C(C)C1CCC2(C(=O)O)CCC3(C)C(CCC4C5(C)CCC(O)C(C)(C)C5CCC43C)C12` (stereo not given), the total growth inhibition concentration (TGI) in the assay on RXF 393 renal was found to be 5.99 µM; in the assay on HOP-62 NSCLC it was 27.6 µM; in the assay with OVCAR-5 ovarian it was 26.1 µM; with CCRF-CEM leukemia, 36.5 µM; in the assay with BT-549 breast, 10.9 µM; in the assay on HL-60(TB) leukemia it was 10.5 µM. The TGI with TK-10 renal is 28.9 µM; in the assay with EKVX NSCLC, 44.9 µM; in the assay with HCC-2998 colon, 24.7 µM; in the assay with HCT-116 colon, 17.5 µM.
Take `Cc1cc(Cl)ccc1Nc1nc2c(s1)C(=O)c1ccccc1C2=O`: the TGI with RXF 393 renal is 16.8 µM; in the assay on HOP-62 NSCLC it was 9.72 µM; in the assay on OVCAR-5 ovarian, 8.61 µM; in the assay on CCRF-CEM leukemia, above 26.3 µM; in the assay on BT-549 breast, 2.9 µM; with HL-60(TB) leukemia, 2.68 µM. The TGI was 33.4 µM with TK-10 renal, 21.4 µM with EKVX NSCLC, 16.1 µM in the assay on HCC-2998 colon and 5.25 µM in the assay on HCT-116 colon.
As for `O=C(c1ccccc1)c1c2n(c3c1cc(O)c1ccccc13)CCN2`, the GI50 with RXF 393 renal was 11.1 µM; with HOP-62 NSCLC, 5.6 µM; with OVCAR-5 ovarian, 0.72 µM; in the assay with CCRF-CEM leukemia, 1.99 µM; in the assay on BT-549 breast, 13.5 µM; with HL-60(TB) leukemia, 2.17 µM. In addition, the GI50 with TK-10 renal was 23.1 µM; in the assay on EKVX NSCLC, 8.63 µM; in the assay with HCC-2998 colon it was 6.11 µM; in the assay with HCT-116 colon, 3.44 µM. Moreover, the TGI in the assay with RXF 393 renal is 27.1 µM; with HOP-62 NSCLC it was 17.9 µM; in the assay with OVCAR-5 ovarian, 7.91 µM; in the assay on CCRF-CEM leukemia, 4.67 µM; in the assay on BT-549 breast, 30.6 µM; with HL-60(TB) leukemia, 4.47 µM. The concentration for total growth inhibition (TGI) in the assay with TK-10 renal turned out to be 75.2 µM; in the assay with EKVX NSCLC, 22.5 µM; in the assay on HCC-2998 colon, 18.9 µM; with HCT-116 colon, 10.9 µM.
As for `CCCCCCn1c2c(c3c(O)cccc31)C(=O)c1ccccc1-2`, the GI50 with RXF 393 renal was 12 µM; with HOP-62 NSCLC, 18.4 µM; in the assay with OVCAR-5 ovarian, 18.6 µM; with CCRF-CEM leukemia, 23.2 µM; with BT-549 breast, 16.4 µM; in the assay on HL-60(TB) leukemia, 18.7 µM. The GI50 was 11 µM in the assay on TK-10 renal, 20.1 µM in the assay on EKVX NSCLC, 15.7 µM with HCC-2998 colon and 17.2 µM in the assay on HCT-116 colon. The TGI in the assay on RXF 393 renal was determined as 28 µM; with HOP-62 NSCLC it was 33.8 µM; with OVCAR-5 ovarian it was 32.8 µM; in the assay on CCRF-CEM leukemia, 50 µM; with BT-549 breast it was 33.9 µM; in the assay with HL-60(TB) leukemia, 63.6 µM. The TGI with TK-10 renal amounted to 24.2 µM; in the assay on EKVX NSCLC, 43.5 µM; in the assay on HCC-2998 colon, 29.4 µM; in the assay on HCT-116 colon, 30.9 µM.
For the compound `COc1cccc(/C=C2\CCc3ccccc3C2=O)c1`, the GI50 is 16.1 µM in the assay on RXF 393 renal; 14.6 µM in the assay with HOP-62 NSCLC; 17.6 µM in the assay on OVCAR-5 ovarian; 3.04 µM in the assay with CCRF-CEM leukemia; 20 µM in the assay with BT-549 breast; 21.9 µM in the assay on HL-60(TB) leukemia. The GI50 in the assay with TK-10 renal was 15.1 µM; in the assay on EKVX NSCLC, 13.9 µM; in the assay with HCC-2998 colon it was 15.8 µM; with HCT-116 colon, 9.26 µM. Also, the TGI with RXF 393 renal came out at 32.4 µM; with HOP-62 NSCLC it was 29.2 µM; in the assay on OVCAR-5 ovarian, 42.7 µM; with CCRF-CEM leukemia, 16.5 µM; with BT-549 breast, 47.6 µM; in the assay on HL-60(TB) leukemia it was 67.4 µM. The TGI came out at 34.6 µM in the assay with TK-10 renal, 29.3 µM in the assay on EKVX NSCLC, 30.6 µM in the assay on HCC-2998 colon and 25.3 µM in the assay with HCT-116 colon.
In the case of `CN1c2ccccc2S(=O)(=O)n2c(COc3ccccc3)nnc21`, the TGI with RXF 393 renal, in the assay with HOP-62 NSCLC, in the assay on OVCAR-5 ovarian, with CCRF-CEM leukemia, with BT-549 breast and with HL-60(TB) leukemia was above 100 µM each time. For the same compound, the TGI in the assay on TK-10 renal, with EKVX NSCLC, with HCC-2998 colon and with HCT-116 colon was above 100 µM throughout.
For `COc1ccc2c(c1)CC1N(C)CCC13CCCCC23` (stereo not given), the TGI in the assay on RXF 393 renal, in the assay with HOP-62 NSCLC, in the assay on OVCAR-5 ovarian, in the assay on CCRF-CEM leukemia, with BT-549 breast and in the assay on HL-60(TB) leukemia was above 100 µM in each case. Besides, the TGI with TK-10 renal, in the assay on EKVX NSCLC, with HCC-2998 colon and in the assay with HCT-116 colon was above 100 µM each time.
On to `CCN(CC)CC(O)c1cc(-c2ccc(Cl)cc2)nc2cc(Cl)ccc12` (stereo not given), for which the GI50 is 2.75 µM with RXF 393 renal; 1.93 µM in the assay with HOP-62 NSCLC; 2.11 µM with OVCAR-5 ovarian; 2.52 µM with CCRF-CEM leukemia; 4.75 µM in the assay on BT-549 breast; 2.02 µM with HL-60(TB) leukemia. Further, the GI50 in the assay on TK-10 renal is 1.65 µM; with EKVX NSCLC, 1.76 µM; in the assay on HCC-2998 colon, 1.67 µM; in the assay on HCT-116 colon it was 1.65 µM. Further, the TGI in the assay on RXF 393 renal worked out at 7.32 µM; in the assay with HOP-62 NSCLC, 4.05 µM; in the assay with OVCAR-5 ovarian, 5.58 µM; with CCRF-CEM leukemia, 5.56 µM; with BT-549 breast, 14.8 µM; with HL-60(TB) leukemia it was 3.74 µM. In addition, the TGI with TK-10 renal was 3.09 µM; in the assay with EKVX NSCLC it was 8.04 µM; in the assay with HCC-2998 colon it was 3.1 µM; in the assay with HCT-116 colon it was 3.15 µM.
For the compound `COc1cc2oc(-c3ccc(O)cc3)cc(=O)c2c(OC)c1O`, the TGI in the assay with RXF 393 renal, in the assay on HOP-62 NSCLC, in the assay with OVCAR-5 ovarian, in the assay with CCRF-CEM leukemia, with BT-549 breast and in the assay with HL-60(TB) leukemia was above 100 µM throughout. Besides, the TGI in the assay on TK-10 renal, in the assay with EKVX NSCLC, in the assay with HCC-2998 colon and in the assay with HCT-116 colon was above 100 µM each time.
As for `COC(=O)[C@H](C)[C@@H]1CC[C@](C)(CCC2=C(C)CCCC2(C)C)OO1`, the TGI in the assay on RXF 393 renal, in the assay with HOP-62 NSCLC, in the assay with OVCAR-5 ovarian, in the assay on CCRF-CEM leukemia, in the assay on BT-549 breast and in the assay with HL-60(TB) leukemia was above 25 µM throughout. Moreover, the concentration for total growth inhibition (TGI) in the assay on TK-10 renal, in the assay on EKVX NSCLC, in the assay on HCC-2998 colon and with HCT-116 colon was above 25 µM throughout.

A word on the GI50: it is the concentration that inhibits growth by half. Usually TGI stands for the concentration at which net growth stops. High values mean less potent growth arrest, low ones more potent growth arrest.

These data come from PubChem BioAssay (NCI).
